Test results from ChEMBL document CHEMBL1201862, “PubChem BioAssay data set” (2004).
Where “and” joins values, the source holds several entries; their conditions need not be identical. Identical values can stand only once.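 Five compound concentrations were applied to cells in 96-well plates for 48 hours; endpoints were derived by simple linear interpolation of the resulting dose-response curve. Abbreviation: GI50, concentration required for 50% inhibition of growth.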 Calls of active or inactive are those of the source. Cut-off read from the data, not from the text of the source: active = GI50 up to about 1.1 µM and inactive = higher.

How the values were obtained:
Test in all cases: inhibition of tumour cell growth, NCI panel, 48 h
RXF 631 = system: RXF 631
KM-20L2 = system: KM-20L2
DMS-114 = system: DMS-114
DMS-273 = system: DMS-273
M19-MEL = system: M19-MEL
LXFL 529 = system: LXFL 529
HOP-18 = system: HOP-18
SNB-78 = system: SNB-78
XF498 = system: XF498

Compound | GI50 (RXF 631) | GI50 (KM-20L2) | GI50 (DMS-114) | GI50 (DMS-273) | GI50 (M19-MEL) | GI50 (LXFL 529) | GI50 (HOP-18) | GI50 (SNB-78) | GI50 (XF498)
COc1ccc(C(=O)CC(=O)C(=O)Nc2ccc(C)c(C)c2)cc1 | > 68.2 µM (inactive) | > 77.1 µM (inactive) | 22.8 µM (inactive) | 40 µM (inactive) | > 100 µM (inactive) | > 64.9 µM (inactive) | > 70.8 µM (inactive) | > 100 µM (inactive) | 
CC1=NN(C(=O)CC(=O)Nc2cccc(Cl)c2)C(=O)C1/N=N/c1ccc(S(N)(=O)=O)cc1 (stereo unspecified) |  | > 100 µM (inactive) | > 100 µM (inactive) | > 100 µM (inactive) | > 100 µM (inactive) | > 100 µM (inactive) | > 100 µM (inactive) | > 100 µM (inactive) | > 100 µM (inactive)
C[Si](C)(C)C#C[I+]c1ccccc1 | 30.1 µM (inactive) | 37.5 µM (inactive) | 20.9 µM (inactive) | 19.8 µM (inactive) | 31.6 µM (inactive) | 28.4 µM (inactive) | 75.5 µM (inactive) | 50.2 µM (inactive) | 29.8 µM (inactive)
O/N=C1/C(=C/c2ccc(Cl)cc2)CCCC1C(NO)c1ccc(Cl)cc1 (stereo unspecified) | 18.1 µM (inactive) | 17.6 µM (inactive) | 24.5 µM (inactive) | 17.8 µM (inactive) | 22.9 µM (inactive) | 25.3 µM (inactive) | 20.3 µM (inactive) | 21.9 µM (inactive) | 22.5 µM (inactive)
COc1ccc(OC(C)C(=O)O)c2c1CCCC2=O (stereo unspecified) |  | < 0.01 µM (active) | > 100 µM (inactive) | > 100 µM (inactive) | > 100 µM (inactive) | > 100 µM (inactive) |  | > 100 µM (inactive) | > 100 µM (inactive)
C/C(=N/OCCC(=O)O)C1CC1 |  | > 100 µM (inactive) | > 100 µM (inactive) | > 100 µM (inactive) | > 100 µM (inactive) | > 100 µM (inactive) | > 100 µM (inactive) | > 100 µM (inactive) | > 100 µM (inactive)
O=C(c1ccccc1)c1nnn(Cc2ccccc2Cn2nnc(C(=O)c3ccccc3)c2C(=O)c2ccccc2)c1C(=O)c1ccccc1 |  | > 100 µM (inactive) | 81.1 µM (inactive) | > 100 µM (inactive) | > 100 µM (inactive) | > 100 µM (inactive) | > 100 µM (inactive) | > 100 µM (inactive) | 
COc1ccc(-c2c(C3=NCCCN3)nnn2-c2ccc([N+](=O)[O-])cc2)cc1 |  | > 100 µM (inactive) | > 100 µM (inactive) | > 100 µM (inactive) | > 100 µM (inactive) | > 100 µM (inactive) | > 100 µM (inactive) | > 100 µM (inactive) | 
CC(C)=CCSC1CC2C(CC1(C)O)C2(C)C (stereo unspecified) |  | 15.7 µM (inactive) and 19.1 µM (inactive) | 15.6 µM (inactive) and 10.1 µM (inactive) | 15.8 µM (inactive) and 9.98 µM (inactive) |  | 17.3 µM (inactive) and 14 µM (inactive) |  | 23.4 µM (inactive) and 12 µM (inactive) | 4.84 µM (inactive) and 4.62 µM (inactive)
COC1C(OC(=S)Nc2ccccc2)c2ccccc2N1C(C)=O (stereo unspecified) |  | 57.4 µM (inactive) | 60.7 µM (inactive) | 85.3 µM (inactive) | > 100 µM (inactive) | 44.4 µM (inactive) | > 100 µM (inactive) | > 100 µM (inactive) | > 100 µM (inactive)
CCCCCCC(=O)CC(=O)C(=O)Nc1ccccc1C | > 100 µM (inactive) | > 100 µM (inactive) | > 69.7 µM (inactive) | > 100 µM (inactive) | > 100 µM (inactive) | > 100 µM (inactive) | > 100 µM (inactive) | > 100 µM (inactive) | > 100 µM (inactive)
COc1ccc(-c2c(C3=NCCN3)nnn2-c2ccccc2)cc1 |  | > 100 µM (inactive) | > 100 µM (inactive) | > 100 µM (inactive) | > 100 µM (inactive) | > 100 µM (inactive) | > 100 µM (inactive) | > 100 µM (inactive) | > 100 µM (inactive)
Cc1ccc(-c2cc(=S)n(-c3ccccc3)c3[nH]c(=S)n(-c4ccccc4)c(=N)c23)cc1 |  | > 100 µM (inactive) | > 100 µM (inactive) | > 100 µM (inactive) | > 100 µM (inactive) | > 100 µM (inactive) |  |  | 
COc1cc2c(cc1OC)C(SC)C(=O)N(Cc1cccc(OC)c1OC)CC2 (stereo unspecified) |  | 1.19 µM (inactive) | 0.621 µM (active) | 0.553 µM (active) | 1.2 µM (inactive) | 2.84 µM (inactive) | 1.49 µM (inactive) | 0.359 µM (active) | 
